Data taken from patent publication US20240043440A1, “COMPOSITIONS AND METHODS OF MODULATING SHORT-CHAIN DEHYDROGENASE ACTIVITY” (CASE WESTERN RESERVE UNIVERSITY, priority 2017, published 2024).

System: not listed separately
Assay: metabolic stability in mouse liver microsomes
Type: in vitro ADME
Settings: LC-MS, FIGS. 2 and 3
Protocol: The metabolic stability was determined by incubating the compounds at a concentration of 10 μM in the presence of microsomes derived from mouse livers. Compound concentrations were monitored by HPLC/MS over time, and half-lives were calculated from the slope of the best-fit line for Ln[compound] vs time.
Metabolite M8 is a thioamide resulting from oxidative cleavage of the thiazole ring. By contrast, 6 membered ring heteroaryls cannot form this metabolite or the toxic byproducts.

For `CCCC[S+]([O-])c1sc2nc(-c3nccs3)cc(-c3cnc(C)n3C)c2c1N` (centres unmarked) [2-(butylsulfinyl)-4-(1,2-dimethyl-1H-imidazol-5-yl)-6-(thiazol-2-yl)thieno[2,3-b]pyridin-3-amine], the “metabolites formed on incubation with mouse liver microsomes” value was “formation of metabolites derived from oxidation of the thiazole”.

System: not listed separately
Assay: chemical stability of the isolated product
Type: physicochemical
Settings: cyclizes completely during 10 days to Examples 6 and 7
Source text: Rather, it cyclized and oxidized as described below.
The desired product 2-(butylsulfinyl)-4-(pyrimidin-5-yl)-6-(thiazol-2-yl)thieno[2,3-b]pyridin-3-amine (Example 5-4) is unstable and cyclizes completely during 10 days to Example 6, (5-(butylsulfinyl)-2-(thiazol-2-yl)-6H-pyrimido[4,5-c]thieno[2,3,4-ij][2,7]naphthyridine) and Example 7, (5-(butylsulfinyl)-2-(thiazol-2-yl)-7H-pyrimido[4,5-c]thieno[2,3,4-ij][2,7]naphthyridine) with Example 6 being the major product. The cyclized products are separable on preparative HPLC: 21.2×250 mm Kinetex 5 μm EVO C18 100 Å reversed phase column using a 2:1 ratio of water to CH3CN with a 10 mL/min flow rate and 100 μL injection volume.

For `CCCC[S+]([O-])c1sc2nc(-c3nccs3)cc(-c3cncnc3)c2c1N` (centres unmarked) [Example 5-4, 2-(butylsulfinyl)-4-(pyrimidin-5-yl)-6-(thiazol-2-yl)thieno[2,3-b]pyridin-3-amine], the “stability of the compound” value was “unstable”.

System: IL1-β treated A549 cells
Assay: induction of PGE2 from IL1-β treated A549 cells
Type: cell-based
Settings: Homo sapiens; A549 cells stimulated with IL1-β for 24 hours

For `CCCC[S+]([O-])c1sc2nc(-c3cnc(N)nc3)cc(-c3ccccc3)c2c1N` (centres unmarked), the EC50 was less than 4 nM.

Biological target: recombinant 15-PGDH (Homo sapiens (Human), UniProt P15428)
Sequence (P15428 whole entry): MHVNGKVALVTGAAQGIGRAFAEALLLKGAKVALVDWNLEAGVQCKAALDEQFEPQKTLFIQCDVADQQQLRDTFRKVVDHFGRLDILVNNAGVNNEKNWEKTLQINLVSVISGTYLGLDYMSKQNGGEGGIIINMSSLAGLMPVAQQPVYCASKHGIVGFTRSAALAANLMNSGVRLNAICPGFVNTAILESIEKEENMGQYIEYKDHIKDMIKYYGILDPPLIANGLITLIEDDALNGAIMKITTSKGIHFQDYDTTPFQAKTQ
Assay: inhibition of enzymatic activity of recombinant 15-PGDH, in vitro assay
Type: biochemical
Settings: Enzyme Inhibitor IC50 (nM) at 1 nM 15-PGDH, 1 nM recombinant 15-PGDH
Source text: This Example provides data on a group of structural analogues of SW033291. Data provided is the IC50 of each compound for inhibiting enzymatic activity of recombinant 15-PGDH in an in vitro assay. Recombinant 15-PGDH is human unless otherwise specified. Additionally, the example provides aqueous solubility data for selected analogues in pH 7 or pH 4 citrate buffer solution.

Point of comparison: `CCCC[S+]([O-])c1sc2nc(-c3cccnc3)nc(-c3ccccc3)c2c1N` (single isomer, unassigned) [74A, 6-(butylsulfinyl)-4-phenyl-2-(pyridin-3-yl)thieno[2,3-d]pyrimidin-5-amine], IC50 0.52 nM. Against it:
- CCCC[S+]([O-])c1sc2nc(-c3cccnc3)nc(-c3ccccc3)c2c1N (single isomer, unassigned) [74B, 6-(butylsulfinyl)-4-phenyl-2-(pyridin-3-yl)thieno[2,3-d]pyrimidin-5-amine] — 54-fold higher, 28 nM

Same assay, conditions: Enzyme Inhibitor IC50 (nM) at 5 nM 15-PGDH, 5 nM recombinant 15-PGDH

`CCCC[S+]([O-])c1sc2nc(-c3ccc(OC)nc3)cc(-c3ccccc3)c2c1N` (centres unmarked) [compound 23] and `CCCC[S+]([O-])c1sc2nc(C3CC3)cc(-c3ccccc3)c2c1N` (centres unmarked) [compound 25] fall in the same range of IC50: 4 to 20 nM for the first, 4 to 20 nM for the second.

Same assay, conditions: read-out: Enzyme Inhibitor IC50 (nM) at 1 nM 15-PGDH; 1 nM recombinant 15-PGDH

Point of comparison: `COCCC[S@@+]([O-])c1sc2nc(-c3cccnc3)cc(-c3cncn3C)c2c1N` [50A], IC50 0.57 nM. Against it:
- CCCC[S@@+]([O-])c1sc2nc(-c3cccnc3)cc(-c3cnc(C)n3C)c2c1N [38A] — within 1.5-fold, 0.76 nM
- CCCC[S@+]([O-])c1sc2nc(-c3cccnc3)cc(-c3cnc(C)n3C)c2c1N [38B] — 47-fold higher, 27 nM
- CCCC[S@@+]([O-])c1sc2nc(-c3cncnc3)cc(-c3cnc(C)n3C)c2c1N [39A] — within 1.5-fold, 0.72 nM
- CCCC[S@+]([O-])c1sc2nc(-c3cncnc3)cc(-c3cnc(C)n3C)c2c1N [39B] — higher, > 100 nM
- CCCC[S@@+]([O-])c1sc2nc(-c3cccnc3)cc(-c3ccccc3)c2c1N [41A] — within 1.5-fold, 0.73 nM
- CCCC[S@+]([O-])c1sc2nc(-c3cccnc3)cc(-c3ccccc3)c2c1N [41B] — 47-fold higher, 27 nM
- CCCC[S@+]([O-])c1sc2nc(-c3cncnc3)cc(-c3ccccc3)c2c1N [42A] — 53-fold higher, 30 nM
- CCCC[S@@+]([O-])c1sc2nc(-c3cncnc3)cc(-c3ccccc3)c2c1N [42B] — within 1.5-fold, 0.59 nM
- CCCC[S@@+]([O-])c1sc2nc(-c3cccnc3)cc(-c3cncn3C)c2c1N [43A] — within 1.5-fold, 0.58 nM
- CCCC[S@+]([O-])c1sc2nc(-c3cccnc3)cc(-c3cncn3C)c2c1N [43B] — higher, > 100 nM
- CCCC[S@@+]([O-])c1sc2nc(-c3cnn(C)c3)cc(-c3ccccc3)c2c1N [46A] — within 1.5-fold, 0.7 nM
- CCCC[S@+]([O-])c1sc2nc(-c3cnn(C)c3)cc(-c3ccccc3)c2c1N [46B] — higher, > 100 nM
- CCCC[S@@+]([O-])c1sc2nc(-c3ccncn3)cc(-c3ccccc3)c2c1N [47A] — within 1.5-fold, 0.65 nM
- CCCC[S@+]([O-])c1sc2nc(-c3ccncn3)cc(-c3ccccc3)c2c1N [47B] — 140-fold higher, 79 nM
- CCCC[S@@+]([O-])c1sc2nc(-c3nccs3)cc(-c3cn(C)cn3)c2c1N [48A] — within 1.5-fold, 0.72 nM
- CCCC[S@+]([O-])c1sc2nc(-c3nccs3)cc(-c3cn(C)cn3)c2c1N [48B] — higher, > 100 nM
- COCCC[S@+]([O-])c1sc2nc(-c3cccnc3)cc(-c3cncn3C)c2c1N [50B] — higher, > 100 nM
- CCCC[S@@+]([O-])c1sc2nc(-c3cccnc3)cc(-c3cnc(C4CC4)n3C)c2c1N [52A, (R)-2-(butylsulfinyl)-4-(2-cylcopropyl-1-methyl-1H-imidazol-5-yl)-6-(pyridine-3-yl)thieno[2,3-b]pyridine-3-amine] — within 1.5-fold, 0.75 nM
- CCCC[S@+]([O-])c1sc2nc(-c3cccnc3)cc(-c3nnc(C4CC4)n3C)c2c1N [52B] — higher, > 100 nM
- CCCC[S@@+]([O-])c1sc2nc(-c3cccnc3)cc(-c3cccnc3)c2c1N [54A] — within 1.5-fold, 0.45 nM
- CCCC[S@+]([O-])c1sc2nc(-c3cccnc3)cc(-c3cccnc3)c2c1N [54B] — higher, > 100 nM
- CCCC[S@@+]([O-])c1sc2nc(-c3cccnc3)cc(-c3ccccn3)c2c1N [58A] — within 1.5-fold, 0.55 nM
- CCCC[S@+]([O-])c1sc2nc(-c3cccnc3)cc(-c3ccccn3)c2c1N [58B] — 4.4-fold lower, 0.13 nM
- CCCC[S@@+]([O-])c1sc2nc(-c3cnc(NC)nc3)cc(-c3ccccc3)c2c1N [60A] — within 1.5-fold, 0.5 nM
- CCCC[S@+]([O-])c1sc2nc(-c3cnc(NC)nc3)cc(-c3ccccc3)c2c1N [60B] — 72-fold higher, 41 nM
- CCCC[S@@+]([O-])c1sc2nc(-c3cnc(N)nc3)cc(-c3ccc(F)cc3)c2c1N [61A] — within 1.5-fold, 0.44 nM
- CCCC[S@+]([O-])c1sc2nc(-c3cnc(N)nc3)cc(-c3ccc(F)cc3)c2c1N [61B] — 42-fold higher, 24 nM
- CCCC[S@@+]([O-])c1sc2nc(-c3ccc(N)nc3)cc(-c3ccccc3)c2c1N [62A] — within 1.5-fold, 0.56 nM
- CCCC[S@+]([O-])c1sc2nc(-c3ccc(N)nc3)cc(-c3ccccc3)c2c1N [62B] — 110-fold higher, 64 nM
- CCCC[S@@+]([O-])c1sc2nc(-c3cnc(N)nc3)cc(-c3ccccc3)c2c1N [64A] — 1.6-fold lower, 0.36 nM
- CCCC[S@+]([O-])c1sc2nc(-c3cnc(N)nc3)cc(-c3ccccc3)c2c1N [64B] — higher, > 100 nM
- COCCC[S@@+]([O-])c1sc2nc(-c3cnc(N)nc3)cc(-c3ccccc3)c2c1N [65A] — within 1.5-fold, 0.59 nM
- COCCC[S@+]([O-])c1sc2nc(-c3cnc(N)nc3)cc(-c3ccccc3)c2c1N [65B] — 53-fold higher, 30 nM
- COCCC[S@@+]([O-])c1sc2nc(-c3cccnc3)cc(-c3ccccc3)c2c1N [68A] — within 1.5-fold, 0.48 nM
- COCCC[S@+]([O-])c1sc2nc(-c3cccnc3)cc(-c3ccccc3)c2c1N [68B] — higher, > 100 nM
- COCCC[S@@+]([O-])c1sc2nc(-c3cccnc3)cc(-c3cn(C)cn3)c2c1N [89A] — within 1.5-fold, 0.77 nM
- COCCC[S@+]([O-])c1sc2nc(-c3cccnc3)cc(-c3cn(C)cn3)c2c1N [89B] — 130-fold higher, 74 nM

Same assay, conditions: read-out: Enzyme Inhibitor IC50 (nM) at 5 nM 15-PGDH; 5 nM recombinant 15-PGDH

Point of comparison: `CCCC[S+]([O-])c1sc2nc(-c3nccs3)cc(-c3cn(C)c(C)n3)c2c1N` (centres unmarked) [compound 2, 2-(butylsulfinyl)-4-(1,2-dimethyl-1H-imidazol-4-yl)-6-(thiazol-2-yl)thieno[2,3-b]pyridin-3-amine], IC50 2.3 nM. Against it:
- CCCC[S@+]([O-])c1sc2nc(-c3nccs3)cc(-c3cn(C)c(C)n3)c2c1N (stereo in doubt) [compound 3, 2-(butylsulfinyl)-4-(1,2-dimethyl-1H-imidazol-4-yl)-6-(thiazol-2-yl)thieno[2,3-b]pyridin-3-amine] — higher, > 500 nM
- CCCC[S@@+]([O-])c1sc2nc(-c3nccs3)cc(-c3cn(C)c(C)n3)c2c1N (stereo in doubt) [compound 4, 2-(butylsulfinyl)-4-(1,2-dimethyl-1H-imidazol-4-yl)-6-(thiazol-2-yl)thieno[2,3-b]pyridin-3-amine] — 1.6-fold lower, 1.4 nM
- CCCC[S+]([O-])c1sc2nc(-c3nccs3)cc3c2c1Nc1ncncc1-3 (centres unmarked) [compound 6, 5-(butylsulfinyl)-2-(thiazol-2-yl)-6H-pyrimido[4,5-c]thieno[2,3,4-ij][2,7]naphthyridine] — 37-fold higher, 86 nM
- CCCC[S+]([O-])c1sc2nc(-c3nccs3)cc3c4c(nc1c23)NC=NC=4 (centres unmarked) [compound 7, 5-(butylsulfinyl)-2-(thiazol-2-yl)-7H-pyrimido[4,5-c]thieno[2,3,4-ij][2,7]naphthyridine] — 57-fold higher, 132 nM
